Measurements from patent US20230167467A1, “METHODS AND COMPOSITIONS FOR THE PRODUCTION OF ISOBUTENE” (University of Alaska Anchorage, priority 2020, published 2023).

Tested on: Engineered strains of E. coli
Type: cell-based
[1] = after solvent exposure, vs positive control

C=CC(C)CC (stereo not drawn) [3-methyl-1-pentene]
expression of acid resistance genes (gad, adi families): downregulated
expression of chaperone proteins groLS, spy, and dnaJK: highly upregulated
expression of dihydroxyacetone kinase genes dhaKLM: upregulated
expression of galactitol metabolism genes gatABD: upregulated
expression of heat shock proteins and chaperones hslJORUV: increased
expression of ibpAB and clpAB (protein protection and repair): increased
expression of marABC (multiple antibiotic resistance): upregulated
expression of nitrate reductase genes narGHJKP: upregulated
expression of phage shock genes pspABCDE: highly upregulated
change in expression of gene adiA [1]: −3.34 ± 0.90
change in expression of gene adiC [1]: −4.45 ± 1.13
change in expression of gene adiY [1]: −4.27 ± 0.72
change in expression of gene bhsA [1]: 4.75 ± 0.60
change in expression of gene bssR [1]: −0.03 ± 0.44
change in expression of gene bssS [1]: 5.81 ± 0.84
change in expression of gene clpA [1]: 3.44 ± 0.63
change in expression of gene clpB [1]: 6.13 ± 0.69
change in expression of gene clpP [1]: 2.17 ± 0.59
change in expression of gene coaA [1]: −1.75 ± 0.90
change in expression of gene coaD [1]: 0.47 ± 0.93
change in expression of gene cspA [1]: −4.30 ± 0.58
change in expression of gene cspB [1]: −3.27 ± 1.33
change in expression of gene cspC [1]: −1.52 ± 0.93
change in expression of gene cspD [1]: 3.11 ± 0.58
change in expression of gene cspE [1]: 0.28 ± 0.63
change in expression of gene cspF [1]: −2.49 ± 1.08
change in expression of gene dhaK [1]: 3.88 ± 0.59
change in expression of gene dhaL [1]: 3.17 ± 0.63
change in expression of gene dnaJ [1]: 6.43 ± 0.69
change in expression of gene dnaK [1]: 4.74 ± 0.66
change in expression of gene fabA [1]: −0.23 ± 0.77
change in expression of gene fabB [1]: 2.75 ± 0.66
change in expression of gene fabD [1]: −0.87 ± 0.53
change in expression of gene flgA [1]: −2.55 ± 1.64
change in expression of gene flgB [1]: −5.95 ± 1.74
change in expression of gene flgC [1]: −5.29 ± 2.06
change in expression of gene flgD [1]: −5.38 ± 2.00
change in expression of gene flgE [1]: −4.38 ± 1.24
change in expression of gene flgF [1]: −3.45 ± 1.66
change in expression of gene flgG [1]: −4.32 ± 1.57
change in expression of gene flgH [1]: −3.08 ± 1.80
change in expression of gene gabD [1]: −0.39 ± 1.37
change in expression of gene gabP [1]: −0.55 ± 1.33
change in expression of gene gabT [1]: −0.74 ± 1.35
change in expression of gene gadA [1]: −3.97 ± 0.90
change in expression of gene gadB [1]: −2.34 ± 0.85
change in expression of gene gadC [1]: −1.88 ± 0.83
change in expression of gene gadE [1]: −5.01 ± 0.68
change in expression of gene gadW [1]: −5.73 ± 1.17
change in expression of gene gadX [1]: −2.89 ± 0.58
change in expression of gene gadY [1]: −4.81 ± 0.90
change in expression of gene glpA [1]: 7.04 ± 0.87
change in expression of gene glpB [1]: 4.86 ± 0.63
change in expression of gene glpC [1]: 5.64 ± 0.80
change in expression of gene groL [1]: 4.37 ± 0.57
change in expression of gene groS [1]: 4.22 ± 0.50
change in expression of gene hchA [1]: 2.03 ± 0.62
change in expression of gene hslJ [1]: 1.02 ± 0.67
change in expression of gene hslO [1]: 3.42 ± 0.64
change in expression of gene hslR [1]: 3.19 ± 0.66
change in expression of gene hslU [1]: 3.91 ± 0.56
change in expression of gene hslV [1]: 3.66 ± 0.61
change in expression of gene ibpA [1]: 9.84 ± 1.21
change in expression of gene ibpB [1]: 11.65 ± 1.50
change in expression of gene lhgO [1]: −1.08 ± 1.80
change in expression of gene lipA [1]: 0.62 ± 0.61
change in expression of gene lipB [1]: 1.26 ± 0.64
change in expression of gene narG [1]: 0.67 ± 0.66
change in expression of gene narH [1]: −0.40 ± 0.65
change in expression of gene narI [1]: −2.41 ± 1.20
change in expression of gene narJ [1]: −0.67 ± 0.73
change in expression of gene narK [1]: 0.15 ± 0.90
change in expression of gene potA [1]: −2.42 ± 0.82
change in expression of gene potB [1]: −1.56 ± 1.33
change in expression of gene potC [1]: −0.61 ± 1.22
change in expression of gene pspA [1]: 10.50 ± 0.55
change in expression of gene pspB [1]: 8.15 ± 0.68
change in expression of gene rpoA [1]: 0.25 ± 0.44
change in expression of gene rpoB [1]: 0.39 ± 0.40
change in expression of gene rpoC [1]: 0.99 ± 0.39
change in expression of gene rpoD [1]: 3.68 ± 0.70
change in expression of gene rpoE [1]: −2.04 ± 0.63
change in expression of gene rpoH [1]: 0.68 ± 0.52
change in expression of gene rpoN [1]: −1.52 ± 0.50
change in expression of gene rpoS [1]: −0.17 ± 0.48
change in expression of gene rpoZ [1]: −1.17 ± 0.55
change in expression of gene spy [1]: 3.35 ± 0.88
change in expression of gene tatA [1]: −1.50 ± 0.52
change in expression of gene tatB [1]: −1.06 ± 0.60
change in expression of gene tatC [1]: −1.33 ± 1.12
change in expression of gene tatD [1]: −2.62 ± 1.19
change in expression of gene tatE [1]: −0.18 ± 0.65
number of genes with significant changes in expression (vs control, Bon Ferroni corrected p-value<0.05): 540 genes
